# Reference: patent US20260027161A1, “BACTERIAL STRAINS FOR TREATING DISEASE” (MICROBA IP PTY LTD, priority 2021, published 2026)
# How the values were obtained:
# [1] = test system: ZO1 expression in T84 cells; assay: IFNγ-mediated loss of ZO1 expression in T84 cells (immunofluorescence); type: cell-based, human; settings: pre-treatment with 1 mM metabolite for 18 hours, IFNγ 48 hours
# [2] = test system: mild to moderate flares of ulcerative colitis; settings: first line therapy; cited from earlier work
# [3] = test system: IL-23-mediated activation of STAT3; assay: IL-23 mediated STAT3 activation, HEK-Blue IL-23 reporter cell line (SEAP); type: cell-based, human
# From the text: The present inventors next sought to investigate whether bacterial products naturally produced by the gut bacterium I. colisanans MH27, can modulate IL-23 mediated activation of STAT3. The JAK-STAT immune axis is a recognised and validated drug target for IBD (Salas et al., 2020) and other diseases (McLornan et al., 2021) with JAK-STAT pathway signalling targeted by several approved IBD therapeutics including anti-IL-23 antibodies (e.g., Ustekinumab) and small molecule inhibitors (e.g., tofacitinib) (Hu et al., 2021). As STAT3 suppression can reduce damaging inflammation, I. colisanans MH27 and/or its bioactives could potentially be used as novel immunoregulatory therapies for IBD and other diseases. The present inventors therefore examined whether I. colisanans MH27 can suppress IL-23-mediated activation of STAT3 using the HEK-Blue™ IL-23 reporter cell line. […]
# IL-23-mediated STAT3 activity was assessed using the HEK Blue IL-23 cell line (Invivogen). […] SEAP is secreted into the medium and the extent of SEAP expression can be quantified using QUANTI-Blue solution. […]
# SEAP production was quantified using QUANTI-BIue™ solution and recorded as optical density (OD) at 630 nm using a PHERAstar FS plate reader (BMG Labtech). […]
# [4] = test system: DSS induced murine colitis; assay: Acute model of DSS induced murine colitis, prophylactic model; type: in vivo, C57BL/6 female mice
# From the text: The present inventors hypothesised that the big-data approach could be used to identify novel candidate live biotherapeutics for inflammatory bowel disease. We therefore tested the therapeutic efficacy of I. colisanans MH27-1 in an acute model of DSS induced murine colitis (FIG. 4A) as this is a well-documented model of epithelial injury and repair. […] As expected, prednisone exacerbated the DSS induced weight loss (Yamamoto, 2013), however DSS induced weight loss was ameliorated by treatment with I. colisanans MH27-1 or F. prausnitzii A2-165 (FIG. 4B).
# I. colisanans strains were grown to early stationary phase in PYG or YG/V. F. prausnitzii was grown in TY medium. The cell density of the individual cultures was calculated using a Helber Counting Chamber. To prepare the bacterial gavage solutions, individual cultures were centrifuged under a layer of sterile heavy mineral oil at 5,000 g for 10 minutes and the cell-free supernatant was then discarded. The cell pellets were washed in 1.5 ml of sterile anaerobic buffered diluent (38 ml/L each of salt solutions 2 & 3 (McSweeney, 2005), 1 ml/L of 0.1% (w/v) resazurin solution, 1 g/L L-cysteine) and then centrifuged again. […]
# For the prophylactic model, six-week-old C57BL/6 female mice purchased from Animal Resources Centres (Western Australia, Australia) were randomised and then co-housed for 7 days prior to experimentation. […] Body weights and stool consistency were recorded daily. […]
# Animals were examined with a small animal gastrointestinal endoscope (Karl Storz Endoskope, Tuttlingen, Germany) on days −1, 2 and 6 to assess the extent of colon mucosal inflammation (Marks, 2015; and Liu, 2019). […] To grade colitis severity, the extent of inflammation and epithelial injury in the tissue sections were graded semi-quantitatively using an established scoring system (Table 6). The samples were then randomised and subsequently scored in a blinded by a trained gastrointestinal pathologist.
# DSS colitis = assay: Acute mouse model of DSS colitis, therapeutic model (I. colisanans MH27-2); type: in vivo, female C57BL/6 mice; settings: 2.5% DSS, daily treatment Day 4 to Day 10
# From the text: The therapeutic efficacy of I. colisanans MH27-2 in an acute mouse model of DSS colitis was examined, with prednisone acting as a positive control drug.
# For the therapeutic model, groups of 10 or 20 female C57BL/6 mice were used. All animals, except those in the healthy group, were given 2.5% dextran sodium sulfate (DSS) in the drinking water for 6 days total (Day 0 to Day 5). DSS was then withdrawn and replaced with normal drinking water for a further 5 days (Day 6 to Day 10). For the treatments, mice were given once daily oral gavage of 200 μL of I. colisanans MH27-2 at a dose of 2×10^8 viable cells per day, or vehicle consisting of sterile glycerol and phosphate buffered salt solution. The positive control drug prednisone was similarly administered via oral gavage at a dose of 2 mg/kg per day. Treatments started on Day 4 and were given for 7 consecutive days until Day 10. Animals were sacrificed on Day 10 approximately 4 hours after the final treatment. Colon was harvested, rinsed, weighed, photographed, cut longitudinally. Colon tissue was fixed in 4% formalin and kept in 70% ethanol for histopathology using the Swiss-roll method.
# [5] = test system: IL-6 trans signalling mediated activation of STAT3; assay: IL-6/IL-6R trans signalling mediated STAT3 activation, HEK-Blue IL-6 reporter cell line; type: cell-based, human; settings: control inhibitor, 10 μM
# From the text: (§1) Increased levels of the pro-inflammatory cytokine IL-6 and signalling via its receptor IL-6R is associated with IBD pathogenesis. […] These effects are mediated by IL-6 receptor binding which causes JAK kinase activation and STAT3 dimerization in combination with activation of MAPK/ERK and other downstream kinases. Here, we examined whether I. colisanans MH27-1 and MH27-2 can suppress IL-6 classical and trans signalling mediated activation of STAT3 using the HEK-Blue™ IL-6 reporter cell line. The HEK-Blue™ IL-6 reporter cell line constitutively expresses the human IL-6 receptor and binding of IL-6 to the receptor triggers expression of a STAT3-responsive SEAP reporter. […] Additionally, I. colisanans MH27-2 suppressed IL-6 trans signalling mediated activation of STAT3 (FIG. 6G).
# (§2) To assess IL-6 and IL-6/IL-6R-mediated STAT3 suppressive activity, three independent colonies were inoculated and grown until early stationary phase. […]
# (§3) IL-6- and IL-6/IL-6R mediated STAT3 activity was assessed using the HEK Blue IL-6 cell line (Invivogen). […] After 24 hours, the STAT3 regulated SEAP reporter activity was assessed using Quanti Blue solution as recommended by the manufacturer (Invivogen). […] Cytotoxicity was assessed using the CellTiter-Glo® 2.0 Cell Viability Assay (Promega, Australia) as recommended by the manufacturer.
# [6] = test system: IL-6 mediated activation of STAT3; assay: IL-6 mediated STAT3 activation, HEK-Blue IL-6 reporter cell line (SEAP); type: cell-based, human; settings: control inhibitor, 10 μM
# From the text: as §1, §2, §3
# [7] = DSS treated mice, colon histology
structure (smiles),measurement,setting,value
"O=C(O)C=Cc1c[nH]c2ccccc12 [IAyA, indole-3-acrylic acid]",IFNγ-induced reduction in ZO1 expression,[1],significantly ameliorated
"O=C(O)CCc1c[nH]c2ccccc12 [IPA, indole-3-proprionic acid]",IFNγ-induced reduction in ZO1 expression,[1],significantly ameliorated
Nc1ccc(O)c(C(=O)O)c1 [Mesalmine],response rates,[2],40%-70%
O=C1NC(Cc2ccccc2)C(=O)N2CCCC12 (centres unmarked) [cyclo(-Phe-Pro)],IL-23 mediated activation of STAT3,"[3]; pure metabolite, relative to the vehicle control",suppressed
C[C@]12C=CC(=O)C=C1CC[C@@H]1[C@@H]2C(=O)C[C@@]2(C)[C@H]1CC[C@]2(O)C(=O)CO [prednisone],DSS induced weight loss (body weight),"[4]; 3.5% DSS, daily treatment, compared to DSS+vehicle",exacerbated
same,disease pathology (histopathological score),[4]; [7],significant improvement in disease pathology
same,epithelial injury,[4]; [7],ameliorated
same,histological evidence of colitis,DSS colitis,ameliorated
C[C@@H]1CCN(C(=O)CC#N)C[C@@H]1N(C)c1ncnc2[nH]ccc12 [tofacitinib],IL-6/IL-6R mediated activation of STAT3,[5],fully prevented
same,IL-23 mediated activation of STAT3,"[3]; control inhibitor, 5 μM",fully prevented
same,IL-6 mediated activation of STAT3,[6],fully prevented
